Earlier results on one molecule are cited in paper PMC4912218, “Targeted metabolomics of Gammarus pulex following controlled exposures to selected pharmaceuticals in water” (The Science of the Total Environment, 2016).

On the set-up of data set [1]: method as in Drugbank. The following applies: 20 °C; ref Drugbank; cited from earlier work.
Another data set relates to Thamnocephalus platyurus. Particulars: ref Kim et al., 2009; cited from earlier work.

`Oc1cc(Cl)ccc1Oc1ccc(Cl)cc1Cl` [Triclosan]: in data set [1], the Water solubility is given as 12000 (20 ºC) mg L^-1. The “24 h- LC50 T. platyurus” value with Thamnocephalus platyurus was 0.47 mg/L.
